Inhibition of growth and MIC data for 15 compounds are collected here from ChEMBL document CHEMBL2417447, “Synthesis and binary QSAR study of antitubercular quinolylhydrazides” (2013).

The subject of assay [1] is Mycobacterium tuberculosis. The assay is described as follows: Antimycobacterial activity against Mycobacterium tuberculosis H37Rv ATCC 27294 assessed as growth inhibition at 6.25 ug/ml after 5 to 8 days by microplate alamar blue assay relative to control. It is filed as functional. The following applies: read-out: GI. (In general: Resazurin is reduced to fluorescent resorufin, in cell work by metabolically active cells.)

In assay [2] the test system is Mycobacterium tuberculosis. The assay is described as follows: Antitubercular activity against Mycobacterium tuberculosis H37Rv ATCC 27294 after 5 to 8 days by microplate alamar blue assay. The class given is functional.

Molecules are shown by their SMILES. ≈ marks a conversion by molar mass, not a printed value.

As a reminder, the MIC is the smallest concentration in the dilution series that meets the test's criterion for growth inhibition. Turning to `CO[C@H]1/C=C/O[C@@]2(C)Oc3c(C)c(O)c4c(O)c(c(/C=N/N5CCN(C)CC5)c(O)c4c3C2=O)NC(=O)/C(C)=C\C=C\[C@H](C)[C@H](O)[C@@H](C)[C@@H](O)[C@@H](C)[C@H](OC(C)=O)[C@@H]1C` [RIFAMPIN], in assay [1], the inhibition of growth at 6.25 µg/mL was 97%. In addition, in assay [2], the lowest concentration to inhibit growth (MIC) was 0.015 µg/mL (≈ 0.0182 µM).
As to `O=C1Nc2cc([N+](=O)[O-])ccc2C(=O)/C1=N/Nc1ccc(Cl)c(F)c1`, the inhibition of growth at 6.25 µg/mL in assay [1] was determined as 70%. Besides, the MIC in assay [2] was less than 6.25 µg/mL.
`COc1ccc(N/N=C2\C(=O)Nc3c(cccc3[N+](=O)[O-])C2=O)cc1`: the inhibition of growth at 6.25 µg/mL in assay [1] came out at 37%. This compound also displayed an MIC in assay [2] greater than 6.25 µg/mL.
For `O=C1Nc2cc([N+](=O)[O-])ccc2C(=O)/C1=N/Nc1ccccc1-c1ccccc1`, the inhibition of growth at 6.25 µg/mL in assay [1] is 100%. This compound also returned an MIC in assay [2] of less than 6.25 µg/mL.
In the same order, the values of `O=C1Nc2c(Cl)cccc2C(=O)/C1=N/Nc1ccccc1Cl` are 7% and greater than 6.25 µg/mL.
The matching figures for `COc1ccc(N/N=C2\C(=O)Nc3c(Cl)ccc(Cl)c3C2=O)cc1`: 36% and greater than 6.25 µg/mL.
In the same order, the values of `O=C1Nc2ccc(Cl)cc2C(=O)/C1=N/Nc1ccc(Cl)cc1` are 98% and less than 6.25 µg/mL.
As for `COc1ccc(N/N=C2\C(=O)Nc3c(Cl)ccc(Cl)c3C2=O)c(C)c1`, the inhibition of growth at 6.25 µg/mL in assay [1] was determined as 40%. The compound also yielded an MIC in assay [2] greater than 6.25 µg/mL.
In the case of `Cc1cccc(N/N=C2\C(=O)Nc3c(C)cccc3C2=O)c1`, the inhibition of growth at 6.25 µg/mL in assay [1] was 31%. In addition, the MIC in assay [2] is greater than 6.25 µg/mL.
Regarding `CC(=O)c1ccc(N/N=C2\C(=O)Nc3c(ccc(Cl)c3Cl)C2=O)cc1`, in assay [1], the inhibition of growth at 6.25 µg/mL turned out to be 98%. This compound gave a minimal inhibitory concentration (MIC) in assay [2] of less than 6.25 µg/mL.
Consider `O=C1Nc2c(ccc(Cl)c2Cl)C(=O)/C1=N/Nc1ccc([N+](=O)[O-])cc1`, for which the inhibition of growth at 6.25 µg/mL in assay [1] was 89%. Besides, the MIC in assay [2] is less than 6.25 µg/mL.
Turning to `O=C1Nc2c(cccc2[N+](=O)[O-])C(=O)/C1=N/Nc1ccccc1`, the inhibition of growth at 6.25 µg/mL in assay [1] was 99%. The compound also gave an MIC in assay [2] of less than 6.25 µg/mL.
In the case of `O=C1Nc2c(Cl)ccc(Cl)c2C(=O)/C1=N/Nc1cccc(Cl)c1`, the inhibition of growth at 6.25 µg/mL in assay [1] is 32%. The compound further came in with an MIC in assay [2] greater than 6.25 µg/mL.
The matching figures for `O=C1Nc2c(cccc2[N+](=O)[O-])C(=O)/C1=N/Nc1cccc([N+](=O)[O-])c1`: 60% and less than 6.25 µg/mL.
For `O=C1Nc2c(cccc2[N+](=O)[O-])C(=O)/C1=N/Nc1ccc([N+](=O)[O-])cc1`, in assay [1], the inhibition of growth at 6.25 µg/mL amounted to 65%. In assay [2], this compound had an MIC of less than 6.25 µg/mL.
